Consider one compound from PMC5773577, “Novel Miniature Membrane Active Lipopeptidomimetics against Planktonic and Biofilm Embedded Methicillin-Resistant Staphylococcus aureus” (Scientific Reports, 2018).

SMILES strings stand for the structures. In brackets after ≈: the same amount, converted by molar mass.

Assay [1] deals with Methicillin-resistant S. epidermidis (ATCC 35984). Description: microbe, parasite or virus in culture. Type of assay: cell-based, Staphylococcus epidermidis. The conditions noted are these: Staphylococcus epidermidis, ATCC 35984 / MRSE; MRSE ATCC 35984; MHB, 2–5 × 10^5 CFU/mL, 16–18 h, 37 °C, OD600; read-out: Minimum inhibitory concentration, MIC. On the procedure:
(§1) The antibacterial activity was evaluated as MIC using slight modifications to a serial broth micro dilution method as reported previously[66],[67]. Briefly, to each treatment well of the 96-well plate (Corning Incorporated, USA) 10 μL of peptidomimetic/antibiotic was added and subsequently diluted serial 2-fold in 0.2% BSA (in 0.01% acetic acid). Then to each well of the first 11 columns 100 μL of mid-log phase bacterial suspension in MHB medium was added to get 2–5 × 10^5 CFU/mL. Cultures without test peptidomimetics/antibiotics were used as growth control. Uninoculated MHB medium was used as negative control. The microtitre plates were incubated overnight with agitation (180 rpm) at 37 °C. After 16–18 h incubation, absorbance was read at 600 nm using an ELISA plate reader (Molecular Devices, Sunnyvale, CA, USA). The experiments were carried out in duplicate on at least three different days.

Assay [2] relates to E. faecium (E-447), clinical isolate of vancomycin-resistant E. faecium. Kind of assay: organism not typed. Type of assay: cell-based, Enterococcus faecium. Particulars: read-out: Minimum inhibitory concentration, MIC. As for the experimental part: as §1
The subject of assay [3] is E. faecium (E-7846), clinical isolate of vancomycin-resistant E. faecium. Description: organism not typed. The conditions noted are these: read-out: Minimum inhibitory concentration, MIC. In kind it is cell-based, Enterococcus faecium. On the procedure: as §1
Assay [4] relates to Vancomycin-resistant E. faecium (ATCC 700221). Kind of assay: microbe, parasite or virus in culture. Particulars: Enterococcus faecium, ATCC700221, MHB, 2–5 × 10^5 CFU/mL, 16–18 h, 37 °C, read-out: Minimum inhibitory concentration, MIC. In kind it is cell-based. As for the experimental part: as §1
The next assay concerns E. faecalis (ATCC 29212). Description: microbe, parasite or virus in culture. Type of assay: cell-based. The conditions noted are these: Enterococcus faecalis, ATCC29212, MHB, 2–5 × 10^5 CFU/mL, 16–18 h, 37 °C, read-out: Minimum inhibitory concentration, MIC. On the procedure: as §1
Another assay concerns MRSA (ATCC 33591). Description: microbe, parasite or virus in culture. In kind it is cell-based, Staphylococcus aureus. Particulars: Staphylococcus aureus, MHB, 2–5 × 10^5 CFU/mL, 16–18 h, 37 °C, OD600, read-out: Minimum inhibitory concentration, MIC. On the procedure: as §1
For the next assay, the system named is S. aureus (ATCC 25923). Kind of assay: microbe, parasite or virus in culture. Type of assay: cell-based, Staphylococcus aureus. The conditions noted are these: Staphylococcus aureus, ATCC25923, MHB, 2–5 × 10^5 CFU/mL, 16–18 h, 37 °C, OD600, read-out: Minimum inhibitory concentration, MIC. On the procedure:
as §1

The test system of the next assay is MRSA (ATCC 43300). Description: microbe, parasite or virus in culture. In kind it is cell-based, Staphylococcus aureus. The conditions noted are these: Staphylococcus aureus, MHB, 2–5 × 10^5 CFU/mL, 16–18 h, 37 °C, OD600, read-out: Minimum inhibitory concentration, MIC. On the procedure:
as §1

Another assay has as its system S. aureus (ATCC 29213). Description: microbe, parasite or virus in culture. Type of assay: cell-based, Staphylococcus aureus. Particulars: Staphylococcus aureus, ATCC29213, MHB, 2–5 × 10^5 CFU/mL, 16–18 h, 37 °C, OD600, duplicate, at least three days, read-out: Minimum inhibitory concentration, MIC. As for the experimental part:
as §1

The test system of another assay is S. aureus (ISP479C). Description: microbe, parasite or virus in culture. In kind it is cell-based, Staphylococcus aureus. The conditions noted are these: Staphylococcus aureus, MHB, 2–5 × 10^5 CFU/mL, 16–18 h, 37 °C, OD600, read-out: Minimum inhibitory concentration, MIC. On the procedure:
as §1

As to `Cc1onc(-c2ccccc2)c1C(=O)N[C@@H]1C(=O)N2[C@@H]1SC(C)(C)[C@@H]2C(=O)O` [OXA, oxacillin], the MIC in assay [1] is > 45.4 µg/mL; in assay [2], > 233 µg/mL; in assay [3] it was > 233 µg/mL; in assay [4] it was > 45.4 µg/mL; in the assay with E. faecalis (ATCC 29212), 5.6 µg/mL (≈ 13.9 µM); in the assay on MRSA (ATCC 33591) it was 56.8 µg/mL (≈ 141 µM). Also, the MIC with S. aureus (ATCC 25923) is < 0.3 µg/mL; in the assay with MRSA (ATCC 43300) it was 56.8 µg/mL (≈ 141 µM); in the assay on S. aureus (ATCC 29213) it was < 0.3 µg/mL; with S. aureus (ISP479C) it was 0.3 µg/mL (≈ 0.747 µM).
